Values after ≈ are worked out from the molar mass of the structure shown.
Key:
E. faecium ATCC 35667 = assay: MIC and MBC testing, broth microdilution; type: cell-based, Enterococcus faecium; conditions: Enterococcus faecium
Method in brief: (§1)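 Twofold serial dilutions of compound in DMSO were prepared in MH broth and mixed with log-phase bacteria, which had been diluted to 1 × 10^6 CFU/mL before mixing. Plates were incubated 18 h at 37 °C. MIC was the lowest concentration without visible growth, in triplicate.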

MRSA-2 [1] = assay: MRSA-induced mouse skin abscess model; type: in vivo
Text: The MRSA-induced mouse skin abscess model was used to assess the in vivo antibacterial effects of 2D. Female KM mice, aged 4–6 weeks and weighing 20 ± 2 g, were purchased from the Laboratory Animal Center, Lanzhou Institute of Veterinary Medicine, Chinese Academy of Agricultural Sciences. The animal experiments were approved by the Ethics Committee of Research Involving Animals of the Lanzhou Institute of Husbandry and Pharmaceutical Science of CAAS (Approval number: 2025-03) and performed in accordance with the guidelines of the Ethics Committee for Animal Experiments. Prior to the formal experiment, all mice were acclimated for 5 days. The mice were kept in a pathogen-free environment with a 12 h light/12 h dark cycle, 50% ± 10% humidity, and a temperature of 24 °C ± 2 °C. […] The depilation method employed was as follows: depilatory paste was applied to the designated area for 10 min, after which it was thoroughly washed with 0.9% saline. The mice were semi-anesthetized by intraperitoneal injection with sodium Ulatan (TCI, 20%, 100 μL). […] After a 24 h interval, the administration was repeated, and 24 h after the last administration, the volume of abscess was measured and calculated. Then, the skin of the infected site and main organs were collected for tissue bacterial load and pathological detection.

MRSA-2 biofilm [2] = assay: Biofilm elimination assay (crystal violet); type: cell-based, Staphylococcus aureus; conditions: at the test concentration
Procedure: The ability of 2D to eliminate biofilm was evaluated. MRSA-2 (1 × 10^6 CFU/mL) was incubated in 96-well plates for 24 h until biofilm formation. The planktonic bacteria were discarded and washed thrice with PBS. […] According to the above method, the OD575 nm value was detected after the following steps: PBS washing, methanol fixation, crystal violet staining, and ethanol incubation.

MRSA-2 [3] = assay: MIC and MBC testing, broth microdilution; type: cell-based, Staphylococcus aureus; conditions: Staphylococcus aureus, MRSA
Method in brief: (§2)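 Broth microdilution in MH broth; two-fold serial dilutions of DMSO-dissolved compound; inoculum 1 × 10^6 CFU/mL from log-phase culture; 37 °C, 18 h; triplicates; MBC also read.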

[4] = test system: clinical S. aureus isolate LMY48; assay: MIC and MBC testing, broth microdilution; type: cell-based, Staphylococcus aureus; conditions: Staphylococcus aureus
Method in brief: (§3)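 Triplicate broth microdilution: MH broth, serial 2× dilution of compounds dissolved in DMSO, 1 × 10^6 CFU/mL bacteria grown to log phase, 18 h at 37 °C, followed by MBC determination.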

[5] = test system: clinical S. aureus isolate LMY46; assay: MIC and MBC testing, broth microdilution; type: cell-based, Staphylococcus aureus; conditions: Staphylococcus aureus
Method in brief: as §3

[6] = test system: clinical S. aureus isolate LMY47; assay: MIC and MBC testing, broth microdilution; type: cell-based, Staphylococcus aureus; conditions: Staphylococcus aureus
Method in brief: as §2

[7] = test system: clinical S. aureus isolate LMY45; assay: MIC and MBC testing, broth microdilution; type: cell-based, Staphylococcus aureus; conditions: Staphylococcus aureus
Method in brief: as §3

MRSA-1 = assay: MIC and MBC testing, broth microdilution; type: cell-based, Staphylococcus aureus; conditions: Staphylococcus aureus, MRSA
Method in brief: as §3

MRSA-2 biofilm [8] = assay: Biofilm formation inhibition assay (crystal violet); type: cell-based, Staphylococcus aureus; conditions: Staphylococcus aureus, MRSA, 24 h, read-out: inhibition rate of biofilm formation
Procedure: The effect of 2D on the biofilm formation of MRSA was evaluated. MRSA-2 was cultured in MH broth for a period of 3–5 h, after which it was diluted to a density of 1 × 10^6 CFU/mL with MH broth. […] After the removal of the suspended bacteria, the well plates were washed thrice with PBS. Then, 150 μL of methanol was added and fixed for 30 min. Subsequent to air-drying, 150 μL of a 0.1% crystal violet aqueous solution was added. Following a 15 min staining period, the excess crystal violet was removed by rinsing with flowing water. Finally, 150 μL of anhydrous ethanol was added and the mixture was incubated for 20 min. The optical density at 575 nm was detected.

S. aureus (ATCC 29213) = assay: Growth curve (OD600); type: cell-based, Staphylococcus aureus; conditions: 2D 0.5, 1, 2, 4, 8 µg/mL, vancomycin 0.5 and 1 μg/mL
Procedure: (§4) The growth inhibition and time-dependent killing abilities of 2D were evaluated against S. aureus (ATCC 29213) and MRSA-2. After culturing the strains in MH broth until the logarithmic growth phase, they were diluted with MH broth to 1 × 10^6 CFU/mL. […] OD600 values were measured at predetermined time intervals (0, 1, 2, 4, 6, 8, 10, 12, and 24 h).

MRSA-2 [9] = assay: Growth curve (OD600); type: cell-based, Staphylococcus aureus; conditions: 2D 0.5, 1, 2, 4, 8 µg/mL, vancomycin 0.5 and 1 μg/mL
Procedure: as §4

S. aureus ATCC 29213 = assay: MIC and MBC testing, broth microdilution; type: cell-based, Staphylococcus aureus; conditions: Staphylococcus aureus
Method in brief: as §1

MRSA-2 [10] = assay: Fluorescence microscopy assay (DAPI/PI); type: cell-based, Staphylococcus aureus; conditions: vancomycin 4 µg/mL; 2D 4 and 8 μg/mL; 2 h
Procedure: MRSA-2 was cultivated to the logarithmic growth phase, then washed with PBS and resuspended in PBS until the concentration of bacterial suspension reached 1 × 10^8 CFU/mL. […] Thereafter, the samples were incubated with DAPI (10 μM) and PI (10 μM) in the dark for 15 min. The bacterial cells were then subjected to observation under a fluorescence microscope. DMSO served as the negative controls.

Which results are given for CN[C@H](CC(C)C)C(=O)N[C@H]1C(=O)N[C@@H](CC(N)=O)C(=O)N[C@H]2C(=O)N[C@H]3C(=O)N[C@H](C(=O)N[C@H](C(=O)O)c4cc(O)cc(O)c4-c4cc3ccc4O)[C@H](O)c3ccc(c(Cl)c3)Oc3cc2cc(c3O[C@@H]2O[C@H](CO)[C@@H](O)[C@H](O)[C@H]2O[C@H]2C[C@](C)(N)[C@H](O)[C@H](C)O2)Oc2ccc(cc2Cl)[C@H]1O [Vancomycin, reference compound]?
MBC (E. faecium ATCC 35667; ATCC35667): 16 µg/mL (≈ 11 µM); MIC (E. faecium ATCC 35667; ATCC35667, 18 h): 2 µg/mL (≈ 1.38 µM); purulent lesions at the infection site (skin histopathology) (MRSA-2 [1]; 5 mg/kg): significantly smaller; volume of skin abscess (MRSA-2 [1]; 5 mg/kg, injected 2 h and 24 h postinfection, compared to model and solvent group): reduced volume; bacterial load of the skin at the infected site (MRSA-2 [1]; 2D 5 and 10 mg/kg, vancomycin 5 mg/kg, compared with model and solvent group): significantly reduced; histopathology of the major organs (MRSA-2 [1]; infected mice after treatment, H&E): no discernible lesions; biofilm elimination (MRSA-2 biofilm [2]): unable to completely eliminate the biofilm; MBC (MRSA-2 [3]): 2 µg/mL (≈ 1.38 µM); MIC (MRSA-2 [3]; 18 h): 1 µg/mL (≈ 0.69 µM); MBC [4]: 2 µg/mL (≈ 1.38 µM); MIC ([4]; 18 h): 1 µg/mL (≈ 0.69 µM); MBC [5]: 8 µg/mL (≈ 5.52 µM); MIC ([5]; 18 h): 1 µg/mL (≈ 0.69 µM); MBC [6]: 2 µg/mL (≈ 1.38 µM); MIC ([6]; 18 h): 1 µg/mL (≈ 0.69 µM); MBC [7]: 2 µg/mL (≈ 1.38 µM); MIC ([7]; 18 h): 0.5 µg/mL (≈ 0.345 µM); MBC (MRSA-1): 4 µg/mL (≈ 2.76 µM); MIC (MRSA-1; 18 h): 1 µg/mL (≈ 0.69 µM); inhibition at 0.25 µg/mL (MRSA-2 biofilm [8]): ~18.5%; inhibition at 0.5 µg/mL (MRSA-2 biofilm [8]): ~37.8%; growth inhibition (growth curve) (S. aureus (ATCC 29213)): failed to completely inhibit the growth; growth inhibition (growth curve) (MRSA-2 [9]): failed to completely inhibit the growth; MBC (S. aureus ATCC 29213; ATCC29213): 4 µg/mL (≈ 2.76 µM); MIC (S. aureus ATCC 29213; ATCC29213, 18 h): 1 µg/mL (≈ 0.69 µM); PI red fluorescence (damaged membranes) (MRSA-2 [10]): a very small amount of red fluorescence

Reference: PMC12250302, “Synthesis, Antimicrobial Activities, and Model of Action of Novel Tetralone Derivatives Containing Aminoguanidinium Moiety” (International Journal of Molecular Sciences, 2025)
